Test results: the NIST ThermoML archive (doi:10.1021/acs.jced.5b00691)
Numbers after ± are expanded uncertainties.

What was measured:
[1] = for surface tension liquid-gas: surface light scattering; for kinematic viscosity / mass density: Liquid; for kinematic viscosity: Surface laser light scattering (SLLS); for mass density: Vibrating tube method
[2] = xn = mol fraction of the nth substance listed; details: for surface tension liquid-gas: surface light scattering; for kinematic viscosity / mass density: Liquid; for kinematic viscosity: Surface Light Scattering; for mass density: Vibrating tube method

COC(F)(C(F)(F)C(F)(F)F)C(F)(C(F)(F)F)C(F)(F)F (stereo not given)
[1]
Details	kinematic viscosity [m2/s]	mass density [kg/m3]	surface tension liquid-gas [mN/m]
273.15 K	1.01e-06 ± 2.5e-08	1714.26 ± 34	16.56 ± 0.67
278.15 K	–	1702.92 ± 34	–
283.15 K	8.49e-07 ± 2.2e-08	1691.49 ± 34	15.81 ± 0.64
288.15 K	–	1680.02 ± 34	–
293.15 K	7.37e-07 ± 1.9e-08	1668.48 ± 33	14.97 ± 0.6
298.15 K	–	1656.86 ± 33	–
303.15 K	6.31e-07 ± 1.7e-08	1645.14 ± 33	14.15 ± 0.57
308.15 K	–	1633.38 ± 33	–
313.15 K	5.56e-07 ± 1.6e-08	1621.44 ± 32	13.43 ± 0.54
318.15 K	–	1609.41 ± 32	–
323.15 K	4.92e-07 ± 1.5e-08	1597.29 ± 32	12.61 ± 0.51
328.15 K	–	1585.05 ± 32	–
333.15 K	4.36e-07 ± 1.4e-08	1572.65 ± 31	11.79 ± 0.48
338.15 K	–	1560.14 ± 31	–
343.15 K	3.95e-07 ± 1.3e-08	1547.49 ± 31	11.03 ± 0.44
348.15 K	–	1534.67 ± 31	–
353.15 K	3.52e-07 ± 1.2e-08	1521.68 ± 30	10.16 ± 0.41
358.15 K	–	1508.51 ± 30	–
363.15 K	3.15e-07 ± 1.1e-08	1495.16 ± 30	9.43 ± 0.38
373.15 K	2.88e-07 ± 1.1e-08	–	8.64 ± 0.35

CCOC(F)(F)C(F)(C(F)(F)F)C(F)(F)F [nonafluoroisobutyl ethyl ether] + CCOC(F)(F)C(F)(F)C(F)(F)C(F)(F)F
[2], x1 = 0.613
Details	kinematic viscosity [m2/s]	mass density [kg/m3]	surface tension liquid-gas [mN/m]
273.15 K	6.63e-07 ± 1.8e-08	1478.05 ± 0.89	16.03 ± 0.65
278.15 K	–	1467.14 ± 0.88	–
283.15 K	5.56e-07 ± 1.6e-08	1456.15 ± 0.87	14.9 ± 0.6
288.15 K	–	1445.07 ± 0.86	–
293.15 K	4.82e-07 ± 1.5e-08	1433.94 ± 0.85	14.01 ± 0.56
298.15 K	–	1422.65 ± 0.84	–
303.15 K	4.29e-07 ± 1.3e-08	1411.31 ± 0.83	13.21 ± 0.53
308.15 K	–	1399.85 ± 0.82	–
313.15 K	3.82e-07 ± 1.3e-08	1388.27 ± 0.81	12.33 ± 0.5
318.15 K	–	1376.56 ± 0.8	–
323.15 K	3.43e-07 ± 1.2e-08	1364.66 ± 0.79	11.42 ± 0.46
328.15 K	–	1352.68 ± 0.78	–
333.15 K	3.13e-07 ± 1.1e-08	1340.45 ± 0.77	10.56 ± 0.43
338.15 K	–	1328.09 ± 0.75	–
343.15 K	2.83e-07 ± 1.1e-08	1315.57 ± 0.74	9.67 ± 0.39
348.15 K	–	1302.85 ± 0.73	–
353.15 K	2.56e-07 ± 1e-08	1289.93 ± 0.72	8.84 ± 0.36
358.15 K	–	1276.74 ± 0.71	–
363.15 K	2.38e-07 ± 1e-08	1263.25 ± 0.7	7.99 ± 0.32
373.15 K	2.22e-07 ± 9.8e-09	–	7.19 ± 0.29

COC(F)(F)C(F)(C(F)(F)F)C(F)(F)F [methyl nonafluoroisobutyl ether] + COC(F)(F)C(F)(F)C(F)(F)C(F)(F)F
[2], x1 = 0.623
Details	kinematic viscosity [m2/s]	mass density [kg/m3]	surface tension liquid-gas [mN/m]
273.15 K	6.64e-07 ± 1.8e-08	1579.23 ± 2.3	15.82 ± 0.63
278.15 K	–	1566.86 ± 2.2	–
283.15 K	5.7e-07 ± 1.6e-08	1554.37 ± 2.2	14.82 ± 0.59
288.15 K	–	1541.76 ± 2.2	–
293.15 K	4.84e-07 ± 1.4e-08	1529.03 ± 2.2	13.8 ± 0.55
298.15 K	–	1516.15 ± 2.2	–
303.15 K	4.28e-07 ± 1.3e-08	1503.18 ± 2.1	12.89 ± 0.52
308.15 K	–	1490.04 ± 2.1	–
313.15 K	3.81e-07 ± 1.2e-08	1476.74 ± 2.1	11.92 ± 0.48
318.15 K	–	1463.23 ± 2.1	–
323.15 K	3.38e-07 ± 1.2e-08	1449.5 ± 2.1	11 ± 0.44
328.15 K	–	1435.61 ± 2	–
333.15 K	3.06e-07 ± 1.1e-08	1421.48 ± 2	10.06 ± 0.4
338.15 K	–	1407.13 ± 2	–
343.15 K	2.77e-07 ± 1.1e-08	1392.52 ± 2	9.13 ± 0.37
348.15 K	–	1377.65 ± 2	–
353.15 K	2.46e-07 ± 1e-08	1362.5 ± 1.9	8.16 ± 0.33
358.15 K	–	1347.04 ± 1.9	–
363.15 K	2.28e-07 ± 9.8e-09	1331.24 ± 1.9	7.32 ± 0.29
373.15 K	2.09e-07 ± 9.5e-09	–	6.46 ± 0.26

CCOC(F)(C(F)(F)C(F)(F)C(F)(F)F)C(F)(C(F)(F)F)C(F)(F)F (stereo not given) [2-trifluoromethyl-3-ethoxydodecafluorohexane]
[1]
Details	kinematic viscosity [m2/s]	mass density [kg/m3]	surface tension liquid-gas [mN/m]
273.15 K	1.14e-06 ± 2.8e-08	1670.6 ± 33	16.92 ± 0.68
278.15 K	–	1660.59 ± 33	–
283.15 K	9.38e-07 ± 2.4e-08	1650.49 ± 33	16.23 ± 0.65
288.15 K	–	1640.35 ± 33	–
293.15 K	8.04e-07 ± 2.1e-08	1630.17 ± 33	15.52 ± 0.63
298.15 K	–	1619.92 ± 32	–
303.15 K	6.91e-07 ± 1.9e-08	1609.61 ± 32	14.75 ± 0.59
308.15 K	–	1599.24 ± 32	–
313.15 K	6.11e-07 ± 1.7e-08	1588.77 ± 32	14.07 ± 0.57
318.15 K	–	1578.28 ± 32	–
323.15 K	5.38e-07 ± 1.5e-08	1567.69 ± 31	13.3 ± 0.54
328.15 K	–	1557 ± 31	–
333.15 K	4.71e-07 ± 1.4e-08	1546.2 ± 31	12.65 ± 0.51
338.15 K	–	1535.3 ± 31	–
343.15 K	4.28e-07 ± 1.3e-08	1524.31 ± 30	11.89 ± 0.48
348.15 K	–	1513.21 ± 30	–
353.15 K	3.88e-07 ± 1.3e-08	1501.99 ± 30	11.13 ± 0.45
358.15 K	–	1490.64 ± 30	–
363.15 K	3.52e-07 ± 1.2e-08	1479.16 ± 30	10.4 ± 0.42
373.15 K	3.17e-07 ± 1.1e-08	–	9.66 ± 0.39

COC(F)(F)C(F)(F)C(F)(F)F [heptafluoropropyl methyl ether]
[1]
Details	kinematic viscosity [m2/s]	mass density [kg/m3]	surface tension liquid-gas [mN/m]
273.15 K	4.22e-07 ± 1.3e-08	1471.16 ± 0.42	14.49 ± 0.58
278.15 K	–	1458.15 ± 0.41	–
283.15 K	3.65e-07 ± 1.2e-08	1444.94 ± 0.41	13.31 ± 0.53
288.15 K	–	1431.58 ± 0.4	–
293.15 K	3.3e-07 ± 1.2e-08	1418.04 ± 0.4	12.33 ± 0.49
298.15 K	–	1404.3 ± 0.39	–
303.15 K	2.9e-07 ± 1.1e-08	1390.35 ± 0.38	11.23 ± 0.45
308.15 K	–	1376.15 ± 0.38	–
313.15 K	2.64e-07 ± 1e-08	1361.67 ± 0.37	10.27 ± 0.41
318.15 K	–	1346.91 ± 0.36	–
323.15 K	2.37e-07 ± 1e-08	1331.89 ± 0.36	9.23 ± 0.37
328.15 K	–	1316.54 ± 0.35	–
333.15 K	2.2e-07 ± 9.7e-09	1300.86 ± 0.34	8.28 ± 0.33
338.15 K	–	1284.82 ± 0.34	–
343.15 K	2.01e-07 ± 9.4e-09	1268.38 ± 0.33	7.36 ± 0.3
348.15 K	–	1251.45 ± 0.32	–
353.15 K	1.8e-07 ± 9.2e-09	1234.05 ± 0.31	6.38 ± 0.26
358.15 K	–	1216.87 ± 0.31	–
363.15 K	1.66e-07 ± 9e-09	1199.54 ± 0.3	5.48 ± 0.22
373.15 K	1.53e-07 ± 8.9e-09	–	4.62 ± 0.19
